The IC50 is the concentration that gives 50% inhibition.

Our source for the IC50 values is ChEMBL document CHEMBL3045291, “Synthesis and evaluation of new potent inhibitors of CK1 and CDK5, two kinases involved in Alzheimers disease” (Med Chem Res, 2013).

The target in assay [1] is Cyclin-dependent kinase 5/CDK5 activator 1 (Homo sapiens, UniProt Q00535). The assay can be described thus: Inhibition of human recombinant CDK5/p25 using histone H1 and [gamma33P]ATP as substrate after 30 min by scintillation counting. The assay is classed as protein-complex assay.
The target of assay [2] is Casein kinase 1, delta tv1 (Sus scrofa, UniProt M3VH47). The assay can be described thus: Inhibition of Sus scrofa (pig) casein kinase 1delta/epsilon isolated from brain using RRKHAAIGpSAYSITA and [gamma33P]ATP as substrate after 30 min by scintillation counting.
Assay [3] concerns the target Glycogen synthase kinase-3 (Sus scrofa, UniProt B2LUN4+I6LNT8). The assay can be described thus: Inhibition of Sus scrofa (pig) glycogen synthase kinase 3alpha/beta isolated from brain using YRRAAVPPSPSLSRHSSPHQpSEDEEE and [gamma33P]ATP as substrate after 30 min by liquid scintillation counting.
Assay [4] has as its target Cyclin-dependent kinase 2/cyclin A (Homo sapiens, UniProt P24941). Briefly: Inhibition of human recombinant CDK2/cyclin A using histone H1 and [gamma33P]ATP as substrate after 30 min by scintillation counting. The assay is classed as protein-complex assay.
In assay [5] the target is Dual specificity tyrosine-phosphorylation-regulated kinase 1A (Homo sapiens, UniProt Q13627). Briefly: Inhibition of Homo sapiens (human) recombinant GST-tagged DYRK1A expressed in Escherichia coli using KKISGRLSPIMTEQ and [gamma33P]ATP as substrate after 30 min by scintillation counting.
In assay [6] the target is T1, G2/mitotic-specific cyclin-B (Asterina pectinifera, UniProt P18063).
T1 sequence (P18063 whole entry): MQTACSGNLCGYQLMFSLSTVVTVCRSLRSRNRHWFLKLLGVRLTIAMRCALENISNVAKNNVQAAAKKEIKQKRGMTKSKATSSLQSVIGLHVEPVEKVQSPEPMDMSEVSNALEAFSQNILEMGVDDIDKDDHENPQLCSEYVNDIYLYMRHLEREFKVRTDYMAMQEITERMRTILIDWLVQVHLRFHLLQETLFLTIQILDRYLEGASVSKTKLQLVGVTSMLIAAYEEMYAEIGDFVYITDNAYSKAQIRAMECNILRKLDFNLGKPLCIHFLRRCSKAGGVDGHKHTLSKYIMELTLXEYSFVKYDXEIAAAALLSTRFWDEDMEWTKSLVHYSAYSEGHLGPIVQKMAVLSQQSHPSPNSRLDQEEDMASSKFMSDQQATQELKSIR
The assay can be described thus: Inhibition of Asteroidea (starfish) Cyclin-dependent kinase 1/cyclin B isolated from oocyte using histone H1 and [gamma33P]ATP as substrate after 30 min by scintillation counting.

Assay [7] addresses Cyclin-dependent kinase 5 (Homo sapiens, UniProt Q00535). Briefly: Inhibition of CDK5 (unknown origin).

Sequence of Casein kinase 1, delta tv1 (M3VH47 whole entry): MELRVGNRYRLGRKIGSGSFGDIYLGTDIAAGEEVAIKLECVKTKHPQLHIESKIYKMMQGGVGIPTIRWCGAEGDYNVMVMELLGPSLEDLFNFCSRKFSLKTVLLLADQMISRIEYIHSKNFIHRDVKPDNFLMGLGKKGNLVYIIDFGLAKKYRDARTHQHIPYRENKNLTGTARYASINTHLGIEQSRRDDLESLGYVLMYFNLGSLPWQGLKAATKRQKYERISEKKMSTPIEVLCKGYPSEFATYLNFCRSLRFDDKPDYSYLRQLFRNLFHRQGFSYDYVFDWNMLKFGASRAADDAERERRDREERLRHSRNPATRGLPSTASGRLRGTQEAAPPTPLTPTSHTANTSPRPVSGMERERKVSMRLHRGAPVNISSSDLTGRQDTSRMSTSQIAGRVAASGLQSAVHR
Sequence of Cyclin-dependent kinase 5/CDK5 activator 1 (Q00535 whole entry): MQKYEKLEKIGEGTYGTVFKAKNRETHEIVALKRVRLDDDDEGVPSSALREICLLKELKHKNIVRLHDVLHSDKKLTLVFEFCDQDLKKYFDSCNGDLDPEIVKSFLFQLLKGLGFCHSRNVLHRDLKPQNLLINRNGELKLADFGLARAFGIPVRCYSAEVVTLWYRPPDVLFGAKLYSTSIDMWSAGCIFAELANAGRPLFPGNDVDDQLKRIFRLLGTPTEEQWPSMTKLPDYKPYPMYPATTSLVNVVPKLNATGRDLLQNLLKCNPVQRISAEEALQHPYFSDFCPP
Sequence of Cyclin-dependent kinase 5/CDK5 activator 1 (Q15078 whole entry, further chain): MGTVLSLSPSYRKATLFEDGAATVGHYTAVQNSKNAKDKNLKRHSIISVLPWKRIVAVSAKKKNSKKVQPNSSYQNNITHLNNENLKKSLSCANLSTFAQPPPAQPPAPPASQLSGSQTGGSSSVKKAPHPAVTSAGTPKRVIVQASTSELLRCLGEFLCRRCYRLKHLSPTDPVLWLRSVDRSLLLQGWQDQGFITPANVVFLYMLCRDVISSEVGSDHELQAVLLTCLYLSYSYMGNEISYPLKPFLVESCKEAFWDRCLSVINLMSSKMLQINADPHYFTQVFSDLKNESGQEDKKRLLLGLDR
Sequence of Cyclin-dependent kinase 5 (Q00535 whole entry): as the sequence (Q00535 whole entry) above

As to `CC(C)n1cnc2c(Nc3cccc(-c4ncccn4)c3)nc(NC(C)(C)CO)nc21`, the figures for the IC50 in assay [1] and in assay [2] were 110 nM and 50 nM, respectively.
Take `CC(C)n1cnc2c(Nc3cccc(-c4ncccn4)c3)nc(NC(CO)CO)nc21`: the IC50 in assay [1] came out at 620 nM; in assay [2], 70 nM.
On to `CC(C)n1cnc2c(Nc3cccc(-c4cncnc4)c3)nc(Cl)nc21`, for which the IC50 in assay [1] is 1000 nM; in assay [3], above 10000 nM; in assay [2], 380 nM.
Regarding `CC(C)n1cnc2c(Nc3cccc(-c4cncnc4)c3)nc(NC(C)(C)CO)nc21`, the IC50 was found to be 110 nM in assay [4], 110 nM in assay [1] and 320 nM in assay [2].
Consider `CC(C)n1cnc2c(Nc3ccc(-c4cncnc4)cc3)nc(Cl)nc21`, for which the IC50 in assay [4] is 1100 nM; in assay [1] it was 2100 nM; in assay [3], above 10000 nM; in assay [2] it was 410 nM.
Consider `CC(C)n1cnc2c(Nc3ccc(-c4cncnc4)cc3)nc(NC(CO)CO)nc21`, for which the IC50 in assay [4] came to 330 nM; in assay [1] it was 190 nM; in assay [2], 640 nM.
The like results for `CC(C)n1cnc2c(Nc3ccc(-c4cncnc4)cc3)nc(NC(C)(C)CO)nc21` were, in that order, 200 nM, 110 nM and 500 nM.
As for `CC(C)n1cnc2c(Nc3cccc(-c4ncccn4)c3)nc(Cl)nc21`, the IC50 in assay [4] is 1900 nM; in assay [5], above 10000 nM; in assay [1], 1900 nM; in assay [3], above 10000 nM; in assay [2], 60 nM; in assay [6] it was 10000 nM.
`NC1=NC(=O)/C(=C2\CCNC(=O)c3[nH]c(Br)cc32)N1` [HYMENIALDISINE]: in assay [7], the IC50 was found to be 30 nM.
